pEC50, pIC50: −log10 of the molar value.
Tests used:
[1] = biological target: T1, Nuclear receptor ROR-gamma (Homo sapiens, UniProt P51449); test: Agonist activity at europium-labeled human RORgammat LBD assessed as induction of XL665-labeled co-activator SRC1 recruitment incubated for 1 hr by dual FRET assay
T1 sequence (P51449 whole entry): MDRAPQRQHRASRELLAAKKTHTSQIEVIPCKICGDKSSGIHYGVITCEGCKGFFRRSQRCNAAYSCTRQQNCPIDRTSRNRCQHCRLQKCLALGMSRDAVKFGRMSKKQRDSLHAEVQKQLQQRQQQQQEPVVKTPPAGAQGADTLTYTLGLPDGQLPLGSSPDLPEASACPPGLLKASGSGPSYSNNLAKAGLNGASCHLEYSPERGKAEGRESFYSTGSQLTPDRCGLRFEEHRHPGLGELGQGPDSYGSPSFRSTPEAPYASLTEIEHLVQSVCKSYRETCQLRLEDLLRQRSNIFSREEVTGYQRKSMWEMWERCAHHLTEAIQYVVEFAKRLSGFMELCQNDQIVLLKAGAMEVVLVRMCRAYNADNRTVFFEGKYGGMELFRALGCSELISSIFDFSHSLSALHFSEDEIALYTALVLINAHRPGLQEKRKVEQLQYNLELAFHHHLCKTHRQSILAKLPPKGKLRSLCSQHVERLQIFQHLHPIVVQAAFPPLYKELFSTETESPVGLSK

[2] = biological target: T1, Nuclear receptor ROR-gamma; test: Inverse agonist activity at europium-labeled human RORgammat LBD assessed as inhibition of XL665-labeled co-activator SRC1 recruitment incubated for 1 hr by dual FRET assay
[3] = biological target: T1, Nuclear receptor ROR-gamma; test: Agonist activity at human RORgammat LBD expressed in HEK293T cells incubated for 16 to 20 hrs by Gal4-luciferase reporter gene assay; type: cell-based
[4] = biological target: T2, Nuclear receptor ROR-gamma (Mus musculus) (UniProt P51450); test: Agonist activity at RORgammat in C57 mouse CD4+ T cells assessed as induction of Th17 cells differentiation by measuring increase in IL17 production measured after 4 days by flow cytometry analysis relative to control; type: cell-based; conditions: CD4+ve Th, filed as agonist, time 4.0 day
T2 sequence (whole entry): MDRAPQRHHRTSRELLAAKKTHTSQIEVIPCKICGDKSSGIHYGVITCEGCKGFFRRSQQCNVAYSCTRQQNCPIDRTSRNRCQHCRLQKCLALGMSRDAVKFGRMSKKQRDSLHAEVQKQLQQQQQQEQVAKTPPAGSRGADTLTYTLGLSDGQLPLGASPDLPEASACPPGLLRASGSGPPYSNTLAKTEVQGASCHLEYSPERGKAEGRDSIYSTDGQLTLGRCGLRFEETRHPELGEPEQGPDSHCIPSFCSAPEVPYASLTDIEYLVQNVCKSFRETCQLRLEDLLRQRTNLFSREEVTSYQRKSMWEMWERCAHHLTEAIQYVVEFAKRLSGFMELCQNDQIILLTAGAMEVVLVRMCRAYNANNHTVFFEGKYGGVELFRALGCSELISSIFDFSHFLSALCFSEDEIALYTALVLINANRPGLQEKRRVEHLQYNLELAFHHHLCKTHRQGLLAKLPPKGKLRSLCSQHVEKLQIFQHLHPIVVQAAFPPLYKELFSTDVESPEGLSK

[5] = biological target: T3, Nuclear receptor ROR-gamma (Homo sapiens) (UniProt P51449); test: Inverse agonist activity at europium-labeled human RORgammat LBD assessed as inhibition of XL665-labeled co-activator SRC1 recruitment incubated for 1 hr by dual FRET assay relative to control; conditions: concentration not given here
T3 sequence (whole entry): T1 sequence (P51449 whole entry)

pEC50 [1]	also measured	SMILES
6.24	–	CC(=O)N1CCN(c2ccc3c(c2)CCN(S(=O)(=O)N(C)CCCc2ccccc2)C3)CC1
–	pIC50 [2]: 6.78	CC(=O)N1CCN(c2ccc3c(c2)CCCN3S(=O)(=O)N(C)Cc2ccccc2Cl)CC1
6.67	–	CC(=O)N1CCN(c2ccc3c(c2)CCN(S(=O)(=O)N(C)Cc2cccc(C)c2)C3)CC1
5.65	–	CC(=O)N1CCN(c2ccc3c(c2)CCN(S(=O)(=O)N(C)CCc2ccccc2)C3)CC1
7.64	–	CC(=O)N1CCN(c2ccc3c(c2)CCN(S(=O)(=O)N(C)Cc2c(F)cccc2Cl)C3)[C@H](C)C1
6.86	–	CC(=O)N1CCN(c2ccc3c(c2)CCN(S(=O)(=O)N(C)Cc2cccc(Cl)c2)C3)CC1
5.99	–	CC(=O)N1CCN(c2ccc3c(c2)CCN(S(=O)(=O)N(C)Cc2ccc(F)cc2)C3)CC1
5.20	–	CC(=O)N1CCN(c2ccc3c(c2)CCN(S(=O)(=O)N(C)c2nccc(C(F)(F)F)n2)C3)CC1
6.66	–	CC(=O)N1CCN(c2ccc3c(c2)CCN(S(=O)(=O)N(C)Cc2ccccc2C)C3)CC1
7.68	pEC50 [3]: 6.72; max activation [4]: 167%	CC(=O)N1CCN(c2ccc3c(c2)CCN(S(=O)(=O)N(C)Cc2c(F)cccc2Cl)C3)CC1
6.26	–	CC(=O)N1CCN(c2ccc3c(c2)CCN(S(=O)(=O)N(C)Cc2cccc(F)c2)C3)CC1
6.01	pEC50 [3]: 6.13; max activation [4]: 93%	CC(=O)N1CCN(c2ccc3c(c2)CCN(S(=O)(=O)N(C)Cc2ccccc2Cl)C3)CC1
6.25	–	CC(=O)N1CCN(c2ccc3c(c2)CCN(S(=O)(=O)N(C)Cc2ccccc2)C3)CC1
–	inhibition [5]: 25.8%; pEC50 [2]: 5.70	CC(=O)N1CCN(c2ccc3c(c2)CCN(S(=O)(=O)N(C)Cc2ccc(C(F)(F)F)cc2)C3)CC1
6.83	–	CC(=O)N1CCN(c2ccc3c(c2)CCN(S(=O)(=O)N(C)Cc2cc(F)ccc2F)C3)CC1
6.45	–	CC(=O)N1CCN(c2ccc3c(c2)CCN(S(=O)(=O)N(C)Cc2ccccc2F)C3)CC1
4.91	–	CC(=O)N1CCN(c2ccc3c(c2)CCN(S(=O)(=O)N(C)Cc2ccccn2)C3)CC1
